Structures can show the parent of a compound that is named as a salt.
Key:
[1] = target: T1, human FXR alpha ligand binding domain (Homo sapiens, UniProt Q96RI1); experiment: FRET activity assay (ligand mediated cofactor peptide interaction, LANCE); type: biochemical; details: GST-FXR-LBD / biotinylated SRC-1 peptide (676-700), read-out: F EC50
T1 construct: made in house; host or cells: E. coli BL21(DE3), vector pDEST15
T1 sequence (Q96RI1 187-472 isoform Q96RI1-2): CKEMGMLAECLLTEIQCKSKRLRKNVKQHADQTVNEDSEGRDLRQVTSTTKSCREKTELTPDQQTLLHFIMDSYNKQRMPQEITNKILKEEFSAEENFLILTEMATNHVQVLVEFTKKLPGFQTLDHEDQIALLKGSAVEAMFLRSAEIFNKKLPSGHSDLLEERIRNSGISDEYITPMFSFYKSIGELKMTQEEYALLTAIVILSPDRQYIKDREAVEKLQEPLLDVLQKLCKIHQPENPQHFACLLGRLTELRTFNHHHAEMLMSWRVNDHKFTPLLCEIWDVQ
How it was run: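 GST-tagged FXR LBD (aa 187–472, E. coli-expressed) at 20–60 ng/well with 200–600 nM biotinylated SRC-1 peptide (676–700), streptavidin-APC and Eu anti-GST in Tris pH 7.5 buffer, 1% DMSO, equilibrated 1 h dark at room temperature. TR-FRET read as 665/615 nm ratio; agonists raise signal above basal.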

[2] = target: T2, FXR ligand binding domain (Homo sapiens, UniProt Q96RI1); experiment: Mammalian One Hybrid (M1H) assay, Gal4 promoter driven transactivation in HEK293 cells; type: cell-based; details: Gal4-FXR-LBD luciferase reporter, 16 h
T2 construct: expressed in transfected cells; host or cells: HEK293 cells, transiently transfected with pCMV-BD-FXR-LBD, pFR-Luc and pRL-CMV
T2 sequence (Q96RI1 187-472 isoform Q96RI1-2): T1 sequence (Q96RI1 187-472 isoform Q96RI1-2)
How it was run: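 HEK293 cells were transiently co-transfected with Gal4-DBD fused to the human FXR LBD (aa 187-472, NM_005123), a 5×GAL4-site firefly luciferase reporter and CMV-Renilla control. Compounds were added 2-4 h post-transfection (vehicle ≤0.1%) in charcoal/dextran-stripped FBS medium for 16 h. Firefly and Renilla luciferase were read sequentially, in triplicate.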

Structure (SMILES)	EC50 [1]	EC50 [2]
O=C(O)c1nsc2ccc([C@]3(O)CC[C@@H](OCc4c(-c5c(Cl)cccc5Cl)noc4C4CC4)CC3)cc12 [Example 33, 5-((1s,4s)-4-((5-Cyclopropyl-3-(2,6-dichlorophenyl)isoxazol-4-yl)methoxy)-1-hydroxycyclohexyl)benzo[d]isothiazole-3-carboxylic acid]	120 nM	2700 nM
O=C(O)Cc1csc([C@]2(O)[C@@H]3CC[C@H]2C[C@H](OCc2c(-c4c(Cl)cccc4Cl)noc2C2CC2)C3)n1 [Example 46, 2-(2-((1R,3s,5S,8r)-3-((5-Cyclopropyl-3-(2,6-dichlorophenyl)isoxazol-4-yl)methoxy)-8-hydroxybicyclo[3.2.1]octan-8-yl)thiazol-4-yl)acetic acid]	42 nM	260 nM
O=C(NCCS(=O)(=O)O)c1cc(F)c2nc([C@]3(O)[C@@H]4CC[C@H]3C[C@H](OCc3c(-c5c(Cl)cccc5Cl)noc3C3CC3)C4)sc2c1 [Example 39, 2-(2-((1R,3s,5S,8r)-3-((5-Cyclopropyl-3-(2,6-dichlorophenyl)isoxazol-4-yl)methoxy)-8-hydroxybicyclo[3.2.1]octan-8-yl)-4-fluorobenzo[d]thiazole-6-carboxamido)ethanesulfonic acid, ammonia salt]	3.2 nM	760 nM
NC(=O)c1cc(F)c2nc([C@]3(O)CC[C@@H](OCc4c(-c5c(Cl)cncc5Cl)noc4C4CC4)CC3)sc2c1 [Example 18, 2-((1s,4s)-4-((5-Cyclopropyl-3-(3,5-dichloropyridin-4-yl)isoxazol-4-yl)methoxy)-1-hydroxycyclohexyl)-4-fluorobenzo[d]thiazole-6-carboxamide]	98 nM	440 nM
CC(C)(O)c1cc(F)c2nc([C@]3(O)CC[C@@H](OCc4c(-c5c(Cl)cncc5Cl)noc4C4CC4)CC3)sc2c1 [Example 20, (1s,4s)-4-((5-Cyclopropyl-3-(3,5-dichloropyridin-4-yl)isoxazol-4-yl)methoxy)-1-(4-fluoro-6-(2-hydroxypropan-2-yl)benzo[d]thiazol-2-yl)cyclohexanol]	150 nM	200 nM
O=C(O)c1ccnc2ccc([C@]3(O)CC[C@@H](OCc4c(-c5c(Cl)cccc5Cl)noc4C4CC4)CC3)cc12 [Example 30, 6-((1s,4s)-4-((5-Cyclopropyl-3-(2,6-dichlorophenyl)isoxazol-4-yl)methoxy)-1-hydroxycyclohexyl)quinoline-4-carboxylic acid]	190 nM	> 3000 nM
O=C(O)c1ccnc2cc([C@]3(O)CC[C@@H](OCc4c(-c5c(Cl)cccc5Cl)noc4C4CC4)CC3)ccc12 [Example 29, 7-((1s,4s)-4-((5-cyclopropyl-3-(2,6-dichlorophenyl)isoxazol-4-yl)methoxy)-1-hydroxycyclohexyl)quinoline-4-carboxylic acid]	51 nM	2600 nM
O=C(O)c1ccc2sc([C@]3(O)CC[C@H](OCc4c(-c5c(Cl)cccc5Cl)noc4C4CC4)CC3)nc2c1 [Example 5, 2-((1r,4r)-4-((5-Cyclopropyl-3-(2,6-dichlorophenyl)isoxazol-4-yl)methoxy)-1-hydroxycyclohexyl)benzo[d]thiazole-5-carboxylic acid]	620 nM	1900 nM
O=C(O)c1cc(F)c2nc([C@]3(O)[C@@H]4CC[C@H]3C[C@H](OCc3c(-c5c(Cl)c[n+]([O-])cc5Cl)noc3C3CC3)C4)sc2c1 [Example 22, 4-(4-((((1R,3s,5S,8r)-8-(6-Carboxy-4-fluorobenzo[d]thiazol-2-yl)-8-hydroxybicyclo[3.2.1]octan-3-yl)oxy)methyl)-5-cyclopropylisoxazol-3-yl)-3,5-dichloropyridine 1-oxide]	3.9 nM	140 nM
O=C(O)CNC(=O)c1cc(F)c2nc([C@]3(O)[C@@H]4CC[C@H]3C[C@H](OCc3c(-c5c(Cl)cccc5Cl)noc3C3CC3)C4)sc2c1 [Example 38, 2-(2-((1R,3s,5S,8r)-3-((5-Cyclopropyl-3-(2,6-dichlorophenyl)isoxazol-4-yl)methoxy)-8-hydroxybicyclo[3.2.1]octan-8-yl)-4-fluorobenzo[d]thiazole-6-carboxamido)acetic acid]	3 nM	1270 nM

Second part, the compound after the results:

EC50 [1]	EC50 [2]	Structure (SMILES)
390 nM	250 nM	CC1(OCc2c(-c3c(Cl)cccc3Cl)noc2C2CC2)C[C@H]2CC[C@@H](C1)[C@]2(O)c1nc2c(F)cc(C(=O)O)cc2s1 (single isomer, unassigned) [Example 11-39]
60 nM	94 nM	O=C(O)c1ccc([C@]2(O)CC[C@@H](OCc3c(-c4c(Cl)cccc4Cl)noc3C3CC3)CC2)c(F)c1 [Example 11-5, 4-((1s,4s)-4-((5-Cyclopropyl-3-(2,6-dichlorophenyl)isoxazol-4-yl)methoxy)-1-hydroxycyclohexyl)-3-fluorobenzoic acid]
3.8 nM	1 nM	O=C(O)c1cc(F)c2nc([C@]3(O)[C@@H]4CC[C@H]3C[C@H](OCc3c(-c5c(Cl)cccc5Cl)noc3C3CC3)C4)sc2c1 [Example 11-27, 2-((1R,3s,5S,8r)-3-((5-cyclopropyl-3-(2,6-dichlorophenyl)isoxazol-4-yl)methoxy)-8-hydroxybicyclo[3.2.1]octan-8-yl)-4-fluorobenzo[d]thiazole-6-carboxylic acid]
980 nM	1800 nM	O=C(O)c1ccc2nc([C@]3(O)CC[C@@H](OCc4c(C5CC5)cnn4-c4ccccc4OC(F)F)CC3)sc2c1 [Example 11-17, 2-((1s,4s)-4-((4-Cyclopropyl-1-(2-(difluoromethoxy)phenyl)-1H-pyrazol-5-yl)methoxy)-1-hydroxycyclohexyl)benzo[d]thiazole-6-carboxylic acid]
47 nM	120 nM	O=C(O)Cc1ccc(F)c([C@]2(O)CC[C@@H](OCc3c(-c4c(Cl)cccc4Cl)noc3C3CC3)CC2)c1 [Example 11-9, 2-(3-((1s,4s)-4-((5-Cyclopropyl-3-(2,6-dichlorophenyl)isoxazol-4-yl)methoxy)-1-hydroxycyclohexyl)-4-fluorophenyl)acetic acid]
16 nM	1800 nM	O=C(O)c1cnc2cc([C@]3(O)CC[C@@H](OCc4c(-c5c(Cl)cccc5Cl)noc4C4CC4)CC3)ccc2c1 [Example 11-43, 7-((1s,4s)-4-((5-Cyclopropyl-3-(2,6-dichlorophenyl)isoxazol-4-yl)methoxy)-1-hydroxycyclohexyl)quinoline-3-carboxylic acid]
1000 nM	1400 nM	O=C(O)c1ccc2nc([C@]3(O)CC[C@@H](OCc4c(-c5ccccc5C5CC5)noc4C4CC4)CC3)sc2c1 [Example 11-11, 2-((1s,4s)-4-((5-Cyclopropyl-3-(2-cyclopropylphenyl)isoxazol-4-yl)methoxy)-1-hydroxycyclohexyl)benzo[d]thiazole-6-carboxylic acid]
77 nM	24 nM	O=C(O)c1cc(F)c2nc(C3(O)C[C@H]4CC[C@@H](C3)C4OCc3c(-c4c(Cl)cccc4Cl)noc3C3CC3)sc2c1 (single isomer, unassigned) [Example 11-55]
250 nM	1200 nM	O=C(O)c1ccc2nc([C@]3(O)CC[C@@H](OCc4c(-c5ccccc5OC(F)F)noc4C4CC4)CC3)sc2c1 [Example 11-10, 2-((1s,4s)-4-((5-Cyclopropyl-3-(2-(difluoromethoxy)phenyl)isoxazol-4-yl)methoxy)-1-hydroxycyclohexyl)benzo[d]thiazole-6-carboxylic acid]
3.7 nM	0.62 nM	CC(C)c1onc(-c2c(Cl)cccc2Cl)c1CO[C@@H]1C[C@H]2CC[C@@H](C1)[C@]2(O)c1nc2c(F)cc(C(=O)O)cc2s1 [Example 11-51, 2-((1R,3s,5S,8r)-3-((3-(2,6-Dichlorophenyl)-5-isopropylisoxazol-4-yl)methoxy)-8-hydroxybicyclo[3.2.1]octan-8-yl)-4-fluorobenzo[d]thiazole-6-carboxylic acid]
120 nM	23 nM	CC1(C)C[C@@H](OCc2c(-c3c(Cl)cccc3Cl)noc2C2CC2)CC[C@]1(O)c1nc2c(F)cc(C(=O)O)cc2s1 (racemic) [Example 11-32, 2-((1R,4S)-4-((5-Cyclopropyl-3-(2,6-dichlorophenyl)isoxazol-4-yl)methoxy)-1-hydroxy-2,2-dimethylcyclohexyl)-4-fluorobenzo[d]thiazole-6-carboxylic acid]
240 nM	730 nM	O[C@@]1(c2nc3ccccc3s2)[C@@H]2CC3C[C@H]1C[C@](OCc1c(-c4c(Cl)cccc4Cl)noc1C1CC1)(C3)C2 [Example 24b, (1R,2s,3S,5s,7s)-2-(benzo[d]thiazol-2-yl)-5-((5-cyclopropyl-3-(2,6-dichlorophenyl)isoxazol-4-yl)methoxy)adamantan-2-ol]
190 nM	320 nM	COCC1(OCc2c(-c3c(Cl)cccc3Cl)noc2C2CC2)C[C@H]2CC[C@@H](C1)[C@]2(O)c1nc2c(F)cc(C(=O)O)cc2s1 (single isomer, unassigned) [Example 11-41]

Reference: patent publication US9751874B2, “Hydroxy containing FXR (NR1H4) modulating compounds” (Gilead Sciences, Inc., priority 2014, dated 2017)
